Reference: ChEMBL document CHEMBL1201862, “PubChem BioAssay data set” (2004)
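Protocol summary: plate cells (96-well), add compound at 5 concentrations, incubate 48 h, interpolate endpoints linearly. The concentration for 50% growth inhibition is given as GI50.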 Activity calls are given as the source filed them. Rule as the data show it: active = GI50 up to about 1.1 µM and inactive = higher.

Assays:
Assay in all cases: NCI-60 cell line screen, 48 h
[1] = system: MOLT-4
[2] = system: OVCAR-8
[3] = system: HCT-15
[4] = system: HOP-62
[5] = system: SK-OV-3
[6] = system: UACC-62
[7] = system: DU-145
[8] = system: U-251
[9] = system: Malme-3M
[10] = system: 786-0
[11] = system: SF-295
[12] = system: NCI/ADR-RES
[13] = system: COLO 205
[14] = system: TK-10
[15] = system: MCF7
[16] = system: RXF 393
[17] = system: LOX IMVI
[18] = system: SN12C
[19] = system: NCI-H23
[20] = system: K562

Structure (SMILES) | GI50 [1] | GI50 [2] | GI50 [3] [µM] | GI50 [4] | GI50 [5] | GI50 [6] | GI50 [7] | GI50 [8] | GI50 [9] | GI50 [10] | GI50 [11] | GI50 [12] | GI50 [13] | GI50 [14] | GI50 [15] | GI50 [16] | GI50 [17] | GI50 [18] | GI50 [19] | GI50 [20]
CCOC(=O)Cn1nc2ccc(Nc3nc4ccccc4nc3C(=O)OCC)cc2n1 | > 100 µM (inactive) | 58.2 µM (inactive) | > 100 | 68.7 µM (inactive) | 49.3 µM (inactive) | 66.8 µM (inactive) | > 100 µM (inactive) | 44.4 µM (inactive) | 45.6 µM (inactive) | 33.4 µM (inactive) | 45.1 µM (inactive) | 54.6 µM (inactive) | > 100 µM (inactive) | 38.4 µM (inactive) | 76.4 µM (inactive) | 23.6 µM (inactive) | > 100 µM (inactive) | > 100 µM (inactive) | 76.6 µM (inactive) | > 100 µM (inactive)
O=C1C2C(c3ccccc3)NC(c3ccccc3)C1C(c1ccccc1)NC2c1ccccc1 (stereo unspecified) | > 100 µM (inactive) | > 100 µM (inactive) | > 100 | > 100 µM (inactive) | > 100 µM (inactive) | > 100 µM (inactive) | > 100 µM (inactive) | > 100 µM (inactive) | > 100 µM (inactive) | > 100 µM (inactive) | > 100 µM (inactive) | > 100 µM (inactive) | > 100 µM (inactive) | > 100 µM (inactive) | > 100 µM (inactive) | > 100 µM (inactive) | > 100 µM (inactive) | > 100 µM (inactive) | > 100 µM (inactive) | > 100 µM (inactive)
CC(C)C(C/C=C1\CC(CO)(COC(=O)C2CCCCC2)OC1=O)C(C)C (stereo unspecified) | 6.87 µM (inactive) | 18.7 µM (inactive) | 21.7 | 13.2 µM (inactive) | > 100 µM (inactive) | 43.8 µM (inactive) | 12.3 µM (inactive) | 19 µM (inactive) | 16.2 µM (inactive) | 13.7 µM (inactive) | 16.3 µM (inactive) | 20.7 µM (inactive) | 10.3 µM (inactive) | 21 µM (inactive) | 21.2 µM (inactive) | 19.1 µM (inactive) | 15.7 µM (inactive) | 16.7 µM (inactive) | 20.6 µM (inactive) | 6.25 µM (inactive)
C=CCN1C(=O)CS/C1=N\NC(=O)CSc1nc2ccccc2c(=O)n1CC | > 100 µM (inactive) | > 100 µM (inactive) | > 100 | 84.1 µM (inactive) | > 100 µM (inactive) | 92 µM (inactive) | > 100 µM (inactive) | > 100 µM (inactive) | > 100 µM (inactive) | > 100 µM (inactive) | > 100 µM (inactive) | > 100 µM (inactive) | > 100 µM (inactive) | > 100 µM (inactive) | > 100 µM (inactive) | > 100 µM (inactive) | > 100 µM (inactive) | > 100 µM (inactive) | > 100 µM (inactive) | > 100 µM (inactive)
O=c1cc(-c2ccccc2)[nH]c2ccc(S)cc12 | 14.3 µM (inactive) | 31.7 µM (inactive) | 16.8 | 70.3 µM (inactive) | 23.7 µM (inactive) | 17.2 µM (inactive) | 52.2 µM (inactive) | 26.1 µM (inactive) | 27.5 µM (inactive) | 79.8 µM (inactive) | 38.5 µM (inactive) | 24.9 µM (inactive) | 38.3 µM (inactive) | 33.9 µM (inactive) | 24.2 µM (inactive) | 31.5 µM (inactive) |  | 18.3 µM (inactive) | 33.9 µM (inactive) | 21.9 µM (inactive)
COC(=O)C1=C(C)NC2=C(C(=O)c3ccccc32)C1c1c[nH]nc1-c1ccccc1 (stereo unspecified) | 24.8 µM (inactive) | 38.1 µM (inactive) | 62.5 | 64.9 µM (inactive) | > 100 µM (inactive) | 35.6 µM (inactive) | > 100 µM (inactive) | 72.1 µM (inactive) | 25.2 µM (inactive) | > 100 µM (inactive) | > 100 µM (inactive) | 42.1 µM (inactive) | 20.9 µM (inactive) |  | 44.7 µM (inactive) | 43.4 µM (inactive) |  | 72.9 µM (inactive) | > 100 µM (inactive) | > 100 µM (inactive)
C/C(=N\NC(=S)N1CCCCCC1)c1ccccn1 | 0.00676 µM (active) | 0.00383 µM (active) |  | 0.075 µM (active) | 0.00665 µM (active) | 0.00881 µM (active) | 0.986 µM (active) | 0.00522 µM (active) | 0.0316 µM (active) | 0.0352 µM (active) | < 0.0187 µM (active) | 0.01 µM (active) | 0.00244 µM (active) | 0.573 µM (active) | 0.0022 µM (active) | 0.553 µM (active) | 0.0656 µM (active) | 0.548 µM (active) | 0.00897 µM (active) | 0.00288 µM (active)
CCOC(=O)c1c2c(n(-c3ccc(OC)cc3)c1C)C(=O)C(=O)c1ccccc1-2 |  | 0.687 µM (active) | 3.65 | 1.78 µM (inactive) | 2.38 µM (inactive) | 1.6 µM (inactive) | 1.52 µM (inactive) | 1.22 µM (inactive) | 0.241 µM (active) | 1.87 µM (inactive) | 1.61 µM (inactive) | 0.869 µM (active) | 2.2 µM (inactive) | 1.72 µM (inactive) | 0.693 µM (active) | 1.84 µM (inactive) | 0.789 µM (active) | 1.58 µM (inactive) | 0.873 µM (active) | 0.488 µM (active)
Cc1ccc(C)n2c1nc1ccccc12 | 62.4 µM (inactive) | > 100 µM (inactive) | > 100 | 85.5 µM (inactive) | > 100 µM (inactive) | 80.5 µM (inactive) | > 100 µM (inactive) | > 100 µM (inactive) | > 100 µM (inactive) | > 100 µM (inactive) | > 100 µM (inactive) | > 100 µM (inactive) | > 100 µM (inactive) | > 100 µM (inactive) | > 100 µM (inactive) | 96.4 µM (inactive) |  | > 100 µM (inactive) | > 100 µM (inactive) | > 100 µM (inactive)
CCCCCCCCCCCCCCCC(=O)OCC(O)C1OC(=O)C(O)=C1O (stereo unspecified) | 62.7 µM (inactive) |  | 32.5 | 31.4 µM (inactive) | 35.6 µM (inactive) | 27.5 µM (inactive) | > 100 µM (inactive) | 28.1 µM (inactive) | > 100 µM (inactive) | 19.6 µM (inactive) | 20 µM (inactive) | 29.3 µM (inactive) | > 100 µM (inactive) |  | < 0.01 µM (active) | 36.7 µM (inactive) | 26.2 µM (inactive) | 29.9 µM (inactive) | 3.21 µM (inactive) | 27.8 µM (inactive)
COC(=O)c1ccc(/C=N/c2ccc(S(N)(=O)=O)cc2)cc1 | 38.4 µM (inactive) | 89.1 µM (inactive) | > 100 | > 100 µM (inactive) | > 100 µM (inactive) | 60.3 µM (inactive) | > 100 µM (inactive) | 67 µM (inactive) | 85.5 µM (inactive) | 57.1 µM (inactive) | > 100 µM (inactive) | 58.5 µM (inactive) | > 100 µM (inactive) | > 100 µM (inactive) | 41.8 µM (inactive) | > 100 µM (inactive) | 33.5 µM (inactive) | 73.8 µM (inactive) | 0.0188 µM (active) | 
